Assay results published in patent US4337199A, “Antibiotic β-lactam compounds, production thereof, and their use as antimicrobial agent” (Sanraku-Ocean Co., Ltd., priority 1978, dated 1982).
Converted amounts (≈) assume the structure as drawn.

Legend:
Assay in all cases: minimum inhibitory concentration, agar dilution assay
Type in all cases: cell-based
[1] = system: Staphylococcus epidermidis; conditions: agar dilution, 35° C., 20 hours, read-out: minimum inhibitory concentration
Description: (§1) The antibiotic activities shown in Tables I-1 to I-8 above were determined in the following manner.
(§2) The minimum inhibitory concentrations of the compounds of formula (I-a-1) or (I-b-1) in Tables I-1 to I-7 and the known compounds in Table I-8 on the various microorganisms shown in the above tables were measured by an agar dilution assay method using a brain heart infusion agar medium "Difco" (a product of Difco Laboratories Inc.)
(§3) A sample of the test compound was dissolved in sterile distilled water and diluted to prepare a two-fold dilution series of the compound solution. In a petri plate of 9 cm diameter, 1 ml of the compound solution was added to 9 ml of molten sterile heart infusion agar medium (Difco Laboratories Inc.) at about 60° C. to prepare the compound-containing agar plate. An overnight culture of each test organism indicated in the above table which was prepared by stationary cultivation in Trypto-Soy broth (Eiken Chemi. Co., Ltd.) at 35° C. for 18 to 20 hours, was diluted with the Trypto-Soy broth to give approximately 10^8 cells/ml and the diluted inoculum was inoculated onto the compound-containing agar plates. After cultivating the plates at 35° C. for 20 hours, the growth of the organism was observed. The minimum concentration of the compound at which no growth of the microorganism was noted was determined, and defined as the minimum inhibitory concentration of the test compound.

Sarcina lutea = conditions: Micrococcus luteus; agar dilution, 35° C., 20 hours; read-out: minimum inhibitory concentration
Description: as §1, §2, §3

[2] = system: Comamonas terrigena B-996; conditions: B996, agar dilution, 35° C., 20 hours, read-out: minimum inhibitory concentration
Description: as §1, §2, §3

Alcaligenes faecalis A 1 = conditions: A1, agar dilution, 35° C., 20 hours, read-out: minimum inhibitory concentration
Description: as §1, §2, §3

Escherichia coli K-12 = conditions: K12, agar dilution, 35° C., 20 hours, read-out: minimum inhibitory concentration
Description: as §1, §2, §3

[3] = system: Bacillus subtilis ATCC 6633; conditions: ATCC6633, agar dilution, 35° C., 20 hours, read-out: minimum inhibitory concentration
Description: as §1, §2, §3

[4] = system: Enterobacter aerogenes E19; conditions: Klebsiella aerogenes, E19; agar dilution, 35° C., 20 hours; read-out: minimum inhibitory concentration
Description: as §1, §2, §3

Proteus vulgaris GN76 = conditions: GN76, agar dilution, 35° C., 20 hours, read-out: minimum inhibitory concentration
Description: as §1, §2, §3

Proteus sp. P22 = conditions: agar dilution, 35° C., 20 hours; read-out: minimum inhibitory concentration
Description: as §1, §2, §3

Serratia marcescens T55 = conditions: T55, agar dilution, 35° C., 20 hours, read-out: minimum inhibitory concentration
Description: as §1, §2, §3

Enterobacter cloacae 45 = conditions: Enterobacter cloacae, 45; agar dilution, 35° C., 20 hours; read-out: minimum inhibitory concentration
Description: as §1, §2, §3

[5] = system: Staphylococcus aureus Russell; conditions: agar dilution, 35° C., 20 hours, read-out: minimum inhibitory concentration
Description: as §1, §2, §3

[6] = system: Staphylococcus aureus FDA 209P; conditions: FDA209P, agar dilution, 35° C., 20 hours, read-out: minimum inhibitory concentration
Description: as §1, §2, §3

Providencia sp. P8 = conditions: SP.P8, agar dilution, 35° C., 20 hours, read-out: minimum inhibitory concentration
Description: as §1, §2, §3

Enterobacter sp. E8 = conditions: SP.E8, agar dilution, 35° C., 20 hours, read-out: minimum inhibitory concentration
Description: as §1, §2, §3

Serratia marcescens S18 = conditions: S18, agar dilution, 35° C., 20 hours, read-out: minimum inhibitory concentration
Description: as §1, §2, §3

[7] = system: Klebsiella pneumoniae K-13; conditions: K13, agar dilution, 35° C., 20 hours, read-out: minimum inhibitory concentration
Description: as §1, §2, §3

[8] = system: Pseudomonas aeruginosa IFO3445; conditions: IFO3445, agar dilution, 35° C., 20 hours, read-out: minimum inhibitory concentration
Description: as §1, §2, §3

[9] = system: Citrobacter freundii GN 346; conditions: GN346, agar dilution, 35° C., 20 hours, read-out: minimum inhibitory concentration
Description: as §1, §2, §3

Proteus mirabilis P6 = conditions: P6, agar dilution, 35° C., 20 hours, read-out: minimum inhibitory concentration
Description: as §1, §2, §3

[10] = system: Pseudomonas aeruginosa NCTC10490; conditions: NCTC10490, agar dilution, 35° C., 20 hours, read-out: minimum inhibitory concentration
Description: as §1, §2, §3

Escherichia coli RGN 823 = conditions: RGN823, agar dilution, 35° C., 20 hours, read-out: minimum inhibitory concentration
Description: as §1, §2, §3

[11] = system: Staphylococcus aureus Smith; conditions: agar dilution, 35° C., 20 hours, read-out: minimum inhibitory concentration
Description: as §1, §2, §3

Proteus rettgeri P7 = conditions: Providencia rettgeri, P7; agar dilution, 35° C., 20 hours; read-out: minimum inhibitory concentration
Description: as §1, §2, §3

| Compound | MIC [1] | MIC (Sarcina lutea) | MIC (Alcaligenes faecalis A 1) | MIC (Escherichia coli K-12) | MIC [3] | MIC [4] | MIC (Proteus vulgaris GN76) | MIC (Proteus sp. P22) | MIC (Serratia marcescens T55) | MIC (Enterobacter cloacae 45) | MIC [5] | MIC [6] | MIC (Providencia sp. P8) | MIC (Enterobacter sp. E8) | MIC (Serratia marcescens S18) | MIC [8] | MIC [9] | MIC (Proteus mirabilis P6) | MIC [10] | MIC (Proteus rettgeri P7) | further results |
| --- | --- | --- | --- | --- | --- | --- | --- | --- | --- | --- | --- | --- | --- | --- | --- | --- | --- | --- | --- | --- | --- |
| CCC1C(=O)N2C(C(=O)O)=C(Sc3ncccn3)CC12 (stereo not shown) [Example 61, 3-(2-pyrimidinylthio)-6-ethyl-7-oxo-1-azabicyclo[3.2.0]hept-2-ene-2-carboxylic acid] | 0.024 µg/mL (≈ 0.0824 µM) | < 0.012 µg/mL | 0.2 µg/mL (≈ 0.687 µM) | 1.56 µg/mL (≈ 5.35 µM) | < 0.012 µg/mL | 12.5 µg/mL (≈ 42.9 µM) | 6.25 µg/mL (≈ 21.5 µM) | 12.5 µg/mL (≈ 42.9 µM) | 25 µg/mL (≈ 85.8 µM) | 25 µg/mL (≈ 85.8 µM) | < 0.012 µg/mL | < 0.012 µg/mL | 0.78 µg/mL (≈ 2.68 µM) | 3.13 µg/mL (≈ 10.7 µM) | 12.5 µg/mL (≈ 42.9 µM) | 12.5 µg/mL (≈ 42.9 µM) | 25 µg/mL (≈ 85.8 µM) | 3.13 µg/mL (≈ 10.7 µM) | 12.5 µg/mL (≈ 42.9 µM) | 3.13 µg/mL (≈ 10.7 µM) | MIC [2]: < 0.012 µg/mL; MIC [7]: 12.5 µg/mL (≈ 42.9 µM); MIC (Escherichia coli RGN 823): 3.13 µg/mL (≈ 10.7 µM); MIC [11]: 0.024 µg/mL (≈ 0.0824 µM) |
| CC(O)[C@H]1C(=O)N2C(C(=O)O)=C(Sc3ccncc3)C[C@H]12 (stereo partly drawn) [Example 59, 5,6-trans-3-(4-Pyridylthio)-6-(1-hydroxyethyl)-7-oxo-1-azabicyclo[3.2.0]hept-2-ene-2-carboxylic acid] | 0.2 µg/mL (≈ 0.653 µM) | 0.1 µg/mL (≈ 0.326 µM) | 0.025 µg/mL (≈ 0.0816 µM) | 1.56 µg/mL (≈ 5.09 µM) | 0.2 µg/mL (≈ 0.653 µM) | 50 µg/mL (≈ 163 µM) | – | – | 100 µg/mL (≈ 326 µM) | 50 µg/mL (≈ 163 µM) | 0.2 µg/mL (≈ 0.653 µM) | 0.1 µg/mL (≈ 0.326 µM) | 1.56 µg/mL (≈ 5.09 µM) | 0.78 µg/mL (≈ 2.55 µM) | – | – | 100 µg/mL (≈ 326 µM) | 6.25 µg/mL (≈ 20.4 µM) | 1.56 µg/mL (≈ 5.09 µM) | 6.25 µg/mL (≈ 20.4 µM) | MIC (Escherichia coli RGN 823): 25 µg/mL (≈ 81.6 µM); MIC [11]: 0.2 µg/mL (≈ 0.653 µM) |
| CC(O)[C@H]1C(=O)N2C(C(=O)O)=C(SC3CCCCC3)C[C@H]12 (stereo partly shown) | 0.39 µg/mL (≈ 1.25 µM) | 0.05 µg/mL (≈ 0.161 µM) | 25 µg/mL (≈ 80.3 µM) | > 100 µg/mL | 6.25 µg/mL (≈ 20.1 µM) | > 100 µg/mL | > 100 µg/mL | > 100 µg/mL | > 100 µg/mL | > 100 µg/mL | 0.2 µg/mL (≈ 0.642 µM) | 0.05 µg/mL (≈ 0.161 µM) | > 100 µg/mL | > 100 µg/mL | > 100 µg/mL | > 100 µg/mL | > 100 µg/mL | 100 µg/mL (≈ 321 µM) | 25 µg/mL (≈ 80.3 µM) | > 100 µg/mL | MIC [2]: 0.05 µg/mL (≈ 0.161 µM); MIC [7]: > 100 µg/mL; MIC (Escherichia coli RGN 823): > 100 µg/mL; MIC [11]: 0.39 µg/mL (≈ 1.25 µM) |
| CC(C)C1C(=O)N2C(C(=O)O)=C(Sc3ncccn3)CC12 (stereo not shown) [Example 62, 3-(2-Pyrimidinylthio)-6-isopropyl-7-oxo-1-azabicyclo[3.2.0]hept-2-ene-2-carboxylic acid] | 0.05 µg/mL (≈ 0.164 µM) | 0.013 µg/mL (≈ 0.0426 µM) | 0.39 µg/mL (≈ 1.28 µM) | 6.25 µg/mL (≈ 20.5 µM) | 0.013 µg/mL (≈ 0.0426 µM) | > 100 µg/mL | 12.5 µg/mL (≈ 40.9 µM) | 12.5 µg/mL (≈ 40.9 µM) | > 100 µg/mL | > 100 µg/mL | 0.013 µg/mL (≈ 0.0426 µM) | 0.007 µg/mL (≈ 0.0229 µM) | 1.56 µg/mL (≈ 5.11 µM) | 12.5 µg/mL (≈ 40.9 µM) | 25 µg/mL (≈ 81.9 µM) | 25 µg/mL (≈ 81.9 µM) | 50 µg/mL (≈ 164 µM) | 3.13 µg/mL (≈ 10.3 µM) | 25 µg/mL (≈ 81.9 µM) | 3.13 µg/mL (≈ 10.3 µM) | MIC [2]: 0.013 µg/mL (≈ 0.0426 µM); MIC [7]: 25 µg/mL (≈ 81.9 µM); MIC (Escherichia coli RGN 823): 3.13 µg/mL (≈ 10.3 µM); MIC [11]: 0.025 µg/mL (≈ 0.0819 µM) |
| CC(O)C1C(=O)N2C(C(=O)O)=C(Sc3ccccn3)CC12 (stereo not shown) | 0.05 µg/mL (≈ 0.163 µM) | < 0.007 µg/mL | 6.25 µg/mL (≈ 20.4 µM) | 0.39 µg/mL (≈ 1.27 µM) | < 0.007 µg/mL | 6.25 µg/mL (≈ 20.4 µM) | 12.5 µg/mL (≈ 40.8 µM) | 12.5 µg/mL (≈ 40.8 µM) | 25 µg/mL (≈ 81.6 µM) | 12.5 µg/mL (≈ 40.8 µM) | 0.013 µg/mL (≈ 0.0424 µM) | < 0.007 µg/mL | 0.2 µg/mL (≈ 0.653 µM) | 0.78 µg/mL (≈ 2.55 µM) | 12.5 µg/mL (≈ 40.8 µM) | 12.5 µg/mL (≈ 40.8 µM) | 6.25 µg/mL (≈ 20.4 µM) | 0.39 µg/mL (≈ 1.27 µM) | 50 µg/mL (≈ 163 µM) | 3.13 µg/mL (≈ 10.2 µM) | MIC [2]: < 0.007 µg/mL; MIC [7]: 25 µg/mL (≈ 81.6 µM); MIC (Escherichia coli RGN 823): 3.13 µg/mL (≈ 10.2 µM); MIC [11]: 0.013 µg/mL (≈ 0.0424 µM) |
| CCC1C(=O)N2C(C(=O)O)=C(Sc3ccccn3)CC12 (stereo not shown) [Example 65, 3-(2-Pyridylthio)-6-ethyl-7-oxo-1-azabicyclo-[3.2.0]hept-2-ene-2-carboxylicacid] | – | – | – | – | – | – | 12.5 µg/mL (≈ 43.1 µM) | 6.25 µg/mL (≈ 21.5 µM) | 25 µg/mL (≈ 86.1 µM) | – | – | – | 1.56 µg/mL (≈ 5.37 µM) | – | 12.5 µg/mL (≈ 43.1 µM) | 12.5 µg/mL (≈ 43.1 µM) | – | – | 25 µg/mL (≈ 86.1 µM) | 6.25 µg/mL (≈ 21.5 µM) | – |
| CC(C)C1C(=O)N2C(C(=O)O)=C(Sc3ccccn3)CC12 (stereo not shown) | – | – | – | – | – | – | 12.5 µg/mL (≈ 41.1 µM) | 12.5 µg/mL (≈ 41.1 µM) | 50 µg/mL (≈ 164 µM) | – | – | – | 3.13 µg/mL (≈ 10.3 µM) | – | 50 µg/mL (≈ 164 µM) | 50 µg/mL (≈ 164 µM) | – | – | 50 µg/mL (≈ 164 µM) | 6.25 µg/mL (≈ 20.5 µM) | – |
